Measurements: patent publication US4873081A, “Percutaneous absorption preparation” (priority 1986, dated 1989)
Where a name gives a salt, the structure may show the parent alone.

Tests used:
[1] = in vivo; set-up: species or system male Wistar rats; conditions: rat, topical or ocular; for AUC(0-t) at 36 h: AUC (0-36 hours)
Text: In Table 1, the results obtained are shown. The calcium salts of the anti-inflammatory drugs in the ointment were absorbed to a much greater degree than the indomethacin (Rp. 1).

[2] = test system: carrageenan-induced paw edema; test: Carrageenan-induced edema in hindpaw of rat; format: in vivo, male Wistar rats; conditions: 0.14 g gel ointment on abdominal skin 6 h before carrageenan
Experimental: (§1) Experimental carrageenan edema was induced in groups of six male Wistar rats weighing 150-160 g. […] The gel without the drug was similarly applied to the control group. The treated area was immediately covered by aluminum foil and adhesive tape. Six hours later, 1% carrageenan solution was injected subcutaneously into the sole of the right hindpaw. The volumes of both hindpaw were measured hourly using a plethysmometer and the edema volume was calculated from the difference between the injected and non-injected paws. FIG. 3 indicates the effect on the carrageenan-induced paw edema of these ointments applied topically.

[3] = test system: shaved back skin; set-up: species or system male rabbits; conditions: rabbit, in vivo
Experimental: The evaluation of skin reactions was done by the erythema and edema scores 24 and 72 hours after application.

[4] = Plasma concentration of indomethacin during multiple percutaneous dosing of ointment to rats; format: in vivo, male Wistar rats; conditions: 0.14 g per 1.0×1.0 cm
Experimental: The hair of the abdominal area of male Wistar rats weighing 250-300 g was removed in the same manner as described in Example 6. […] The rats were fixed in the Bollman cages for 24 hours. The ointment remained in contact with the skin for 24 hours, and then the unabsorbed ointment was wiped off. Subsequently, second and third applications of the ointment (0.14 g, 1.0×1.0 cm area) were made at different positions on the abdomen similar to the first application. The drug concentrations were determined by the same procedure as described in Example 6. FIG. 2 depicts the plasma indomethacin concentrations after the topical application of these ointments.

[5] = test system: adjuvant arthritis induced with M. butyricum; test: Adjuvant arthritis induced with M. butyricum; format: in vivo, male Wistar rats; conditions: for Inhibition: adjuvant arthritis; for Inhibition / Foot volume: day 16, mean ± S.D. of 6 rats; for Foot volume: 0.14 g gel ointment every other day from day 11 to 15, *p <0.05 vs control
Experimental: as §1
M. butyricum (Difco Lab., USA) suspended in paraffin oil was injected into the sole of right hindpaw of male Wistar rats weighing 150-160 g. […] The edema volumes were calculated by measuring the volumes of both hindpaws on day 16, according to the same procedure as described in Example 9.

[6] = Absorption of the active ingredient from other bases or with other promoters; conditions: calcium thioglycolate as absorption promoter

SMILES | AUC(0-t) at 36 h [1] | erythema produced by the ointment [3] | irritation produced by the ointment [3] | Inhibition [5] | Foot volume [5] | Bioavailability [1] | AUC (0-36 hours) [1] | also measured
O=C(O)COc1nn(Cc2ccccc2)c2ccccc12 [Bendazac calcium] | 460 ± 31.5 µg·h/mL |  |  |  |  |  |  | 
O=C(O)Cc1ccccc1Nc1c(Cl)cccc1Cl [Diclofenac calcium] | 465 ± 32.4 µg·h/mL |  |  |  |  |  |  | 
O=C(O)c1ccccc1Nc1cccc(C(F)(F)F)c1 [Flufenamate calcium] | 463 ± 18.9 µg·h/mL |  |  |  |  |  |  | 
COc1ccc2c(c1)c(CC(=O)O)c(C)n2C(=O)c1ccc(Cl)cc1 [Indomethacin calcium, Calcium salt of indomethacin] |  | only slight erythema | nearly negligible | 51.0 ± 7.6% | 2.38 ± 0.12 mL | 70.3 ± 4.1% | 473.4 ± 16.5 µg·h/mL | inhibitory effect on carrageenan-induced paw edema [2]: significantly higher inhibitory effect; absorption through the skin compared with indomethacin ([4]; three 24 h applications): readily and quickly absorbed through the skin compared with indomethacin; plasma levels after application of the gel ointment ([4]; multiple dosing, vs indomethacin ointment): much higher plasma levels; inhibitory effect on adjuvant arthritis ([5]; compared with indomethacin ointment): significant inhibitory effect, to the same extent as the indomethacin ointment; absorption of the active ingredient on addition of calcium thioglycolate [6]: dramatically decrease the absorption
COc1ccc2c(c1)c(CC(=O)O)c(C)n2C(=O)c1ccc(Cl)cc1 [Indomethacin, indomethacin, reference compound] |  | only slight erythema | nearly negligible | 55.4 ± 10.5% | 2.32 ± 0.16 mL | 7.3 ± 1.4% | 50.4 ± 7.8 µg·h/mL | 
Cc1cccc(Nc2ccccc2C(=O)O)c1C [Mefenamate calcium, Calcium mefenamate] | 470 ± 40.5 µg·h/mL |  |  |  |  |  |  | 
